Molecular target: SHP2cat (Homo sapiens (Human), UniProt Q06124)
Experiment: Protein thermal shift (PTS) assay
Type: binding
Conditions: vs vehicle (DMSO) control
Excerpt: We confirmed specific and dose-dependent binding of inhibitors to SHP2 by protein thermal shift, which monitors the thermal stability of a target protein in vitro. […] In addition, we confirmed the inhibitory activity of several furanylbenzamide inhibitors, including the top two compounds #02 and #01, in SHP2cat inhibition assays using the alternative substrate 3-O-methylfluorescein phosphate (OMFP), which features a peak fluorescence emission that is red-shifted by […] compared to DiFMUP. The Km value of OMFP for SHP2cat was determined to be 50 μM. An OMFP fluorescence intensity-based assay was used to perform inhibitor dose-response experiments and determine IC50 values.
Differential scanning fluorimetry (also known as protein thermal shift) measurements of SHP2cat were performed. #02 was spotted at different concentrations into MicroAmp®384-well real-time PCR plates (#4483285, Applied Biosystems, Waltham, MA) using an Echo 555 Liquid Handler. […] Plates were analyzed using a ViiA® 7 Real-Time PCR instrument (Applied Biosystems, Waltham, MA) and a 12 min temperature gradient with a temperature increase of 0.075° C./s. The melting temperature and thermal profiles were determined using Protein Thermal Shift™ Software v1.3 (Applied Biosystems, Waltham, MA).

SHP2cat, sequence (Q06124 248-527): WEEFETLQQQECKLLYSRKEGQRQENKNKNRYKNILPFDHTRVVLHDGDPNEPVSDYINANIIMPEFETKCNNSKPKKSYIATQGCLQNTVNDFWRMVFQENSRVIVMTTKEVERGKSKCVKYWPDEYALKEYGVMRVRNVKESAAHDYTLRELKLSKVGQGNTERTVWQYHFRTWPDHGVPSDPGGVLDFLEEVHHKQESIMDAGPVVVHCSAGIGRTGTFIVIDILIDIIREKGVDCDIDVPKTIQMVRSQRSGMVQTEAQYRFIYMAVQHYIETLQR

In the case of `O=C(Nc1ccccc1)c1cc(-c2ccc(/C=C3\Sc4ccccc4C3=O)o2)ccc1O` [#02, (Z)-2-hydroxy-5-(5-((3-oxobenzo[b]thiophen-2(3H)-ylidene)methyl)furan-2-yl)-N-phenylbenzamide], the “change of SHP2cat melting temperature (Tm)” value is reported as “dose-dependently increased the melting temperature”.
